The values below come from US20220151999A1, “METHODS OF TREATING ATTENTION DEFICIT HYPERACTIVITY DISORDER USING KDM1A INHIBITORS SUCH AS THE COMPOUND VAFIDEMSTAT” (ORYZON GENOMICS, S.A., priority 2019, published 2022).

What all share (assay type): in vivo, human
In series [1] the test system is ADHD patients. Kind of series: REIMAGINE Phase IIa trial, ADHD cohort: ADHD Rating Scale (ADHD-RS). Particulars: adult ADHD patients (5 eligible), 1.2 mg/day oral, 5 days on/2 days off, 8 weeks; paired one-tail t-test p=0.0279. From the text: (§1) As part of a Phase IIa clinical trial (REIMAGINE trial, EudraCT number 2018-002140-88) to evaluate the safety, tolerability and efficacy of the KDM1A inhibitor vafidemstat to treat aggression in adult population in patients with different CNS disorders, a cohort of ADHD patients was recruited and treated with vafidemstat for 8 weeks. A summary of the protocol of this clinical trial and results obtained in the ADHD cohort are provided below.
(§2) Reimagine is a unicenter, open-label, 1-arm, 8-week clinical study to evaluate the efficacy, safety and tolerability of vafidemstat in aggression in adult population with Alzheimer's Disease (AD), Lewy Body Dementia (LBD), Adult attention Deficit Hyperactivity Disorder (ADHD), Borderline Personality Disorder (BPD) and Autism Spectrum Disorder (ASD). Six patients to be recruited per disorder. […]
(§3) Evaluation of the effect of treatment with vafidemstat on aggression was performed using the Clinical Global Impression (CGI) scale. […] In addition to assessing its effect on aggression, the effect of treatment with vafidemstat on ADHD patients was also evaluated using the Attention Deficit Hyperactivity Disorder Rating Scale (ADHD-RS), a validated scale that is specific for ADHD and is widely used to evaluate ADHD in adults. […] Each item is scored from 0 to 3 points, with the highest scores indicating the presence of problematic symptoms/behavior. […]

The subject of series [2] is ADHD patients. Kind of series: REIMAGINE Phase IIa trial, ADHD cohort: aggression by Clinical Global Impression (CGI-S, CGI-I) scales. The following applies: adult ADHD patients (5 eligible), 1.2 mg/day oral, 5 days on/2 days off, 8 weeks.
Source text: as §1, §2, §3

The test system of series [3] is ADHD patients. Kind of series: REIMAGINE Phase IIa trial, ADHD cohort: safety and tolerability. Particulars: adult ADHD patients, 1.2 mg/day oral, 5 days on/2 days off, 8 weeks.
Source text: as §1
Reimagine is a unicenter, open-label, 1-arm, 8-week clinical study to evaluate the efficacy, safety and tolerability of vafidemstat in aggression in adult population with Alzheimer's Disease (AD), Lewy Body Dementia (LBD), Adult attention Deficit Hyperactivity Disorder (ADHD), Borderline Personality Disorder (BPD) and Autism Spectrum Disorder (ASD). Six patients to be recruited per disorder.
Main objective of the trial: To evaluate the safety and tolerability of vafidemstat in adult population with Alzheimer's Disease (AD), Lewy Body Dementia (LBD), Adult attention deficit hyperactivity disorder (ADHD), Borderline Personality Disorder (BPD), Autism Spectrum Disorder (ASD)
Treatment: All patients received vafidemstat (as free base) at a dose of 1.2 mg/day, administered orally as a single capsule, in a 5 days on/2 days off schedule, during 8 weeks. […]

In the case of `Nc1nnc(CN[C@@H]2C[C@H]2c2ccc(OCc3ccccc3)cc2)o1` [vafidemstat, 5-((((1R,2S)-2-(4-(benzyloxy)phenyl)cyclopropyl)amino)methyl)-1,3,4-oxadiazol-2-amine], the “ADHD-RS score, change from visit 1 (baseline) to visit 7” value in the series with ADHD patients [1] was “statistically significant reduction”. Further, the “CGI-Severity (CGI-S) score, aggression, change from visit 1 (baseline) to visit 7” value in the series on ADHD patients [2] (paired one-tail t-test p=0.0043) was “statistically significant reductions”. Moreover, in the series on ADHD patients [2] (paired one-tail t-test p=0.0352), the “CGI-Improvement (CGI-I) score, aggression, change from visit 1 (baseline) to visit 7” value was “statistically significant reductions”. For the same molecule, the “safety and tolerability of treatment” value with ADHD patients [3] was “safe and well tolerated, without significant adverse events”.
